{"source": "paper PMC7451656", "about": "“In vitro and in vivo growth inhibitory activities of cryptolepine hydrate against several Babesia species and Theileria equi” (PLoS Neglected Tropical Diseases, 2020)", "key": {"[1]": {"system": "human foreskin fibroblast (HFF) cell line", "experiment": "cells", "type": "cell-based", "conditions": "for EC50: Homo sapiens, cell viability, HFF, 24 h, CCK-8", "method": "(§1) Madin–Darby bovine kidney (MDBK) (ECACC), mouse embryonic fibroblast (NIH/3T3 ATCC CRL-1658) and Human foreskin fibroblast (HFF HFF-1 ATCC SCRC-1041) cell lines were recovered from -80°C stock and cultured continuously in our laboratory at 37°C in a humidified incubator with 5% CO2. In 75 cm^2 culture flasks, NIH/3T3 and HFF cell lines were maintained with Dulbecco’s Modified Eagle’s Medium (DMEM; Gibco, Grand Island, NY, USA), while the MDBK cell line was maintained with Minimum Essential Medium Eagle (MEM; Gibco). Ten percent fetal bovine serum, 1% glutamine, and 0.5% penicillin/streptomycin (Gibco) were added to all media and the cells were stained with 4, 6-diamidino-2-phenylindole dihydrochloride (DAPI; Sigma-Aldrich, St. Louis, MO, USA) to ensure that they were free from mycoplasma contamination. Afterward, the cells were washing twice with Dulbecco’s phosphate-buffered saline and TrypLE Express (Gibco) was used for cell detachment from the culture flask. Finally, Neubauer improved C-Chip (NanoEntek Inc., Seoul, Korea) was used for counting the viable cells after staining with 0.4% trypan blue solution.\n(§2) The cytotoxicity assay was performed in accordance with the previously described protocol. Briefly, the assay was carried out using 96-well plates at 37 °C in a humidified incubator with 5% CO2, 100 μl of cells at a density of 5 x 10^4 cells/ml was seeded per well and allowed to attach to the plate for 24 h. Ten microliters of twofold drug dilutions was added to each well to a final concentration of 0.781 to 100 μM in triplicate and incubated for another 24 h. Ten μl of Cell Counting Kits-8 (CCK-8; Dojindo, Japan) was added to each well and incubated for another 3 h, and the absorbance was measured at 450 nm using a microplate reader."}, "[2]": {"system": "Madin–Darby bovine kidney (MDBK) cell line", "experiment": "cells", "type": "cell-based", "conditions": "for EC50: Bos taurus, MDBK, 24 h, cell viability, CCK-8", "method": "as §1, §2"}, "[3]": {"system": "mouse embryonic fibroblast (NIH/3T3) cell line", "experiment": "cells", "type": "cell-based", "conditions": "for EC50: Mus musculus, NIH3T3, cell viability, NIH/3T3, 24 h, CCK-8", "method": "as §1, §2"}, "[4]": {"system": "bovine RBCs / B. divergens", "experiment": "Growth of B. divergens with CRY-treated bovine RBCs", "type": "cell-based, Babesia divergens", "conditions": "bovine RBCs pre-incubated with 1 and 10 μM CRY for 3 and 6 h, 4 days", "method": "(§3) To investigate the hemolytic effect of CRY on host (bovine or equine) RBCs, bovine and equine RBCs were incubated with 1 and 10 μM of CRY for 3 and 6 h. The RBCs were washed thrice with phosphate-buffered saline (PBS) and mixed with B. divergens and B. caballi infected RBCs (iRBCs, recovered from −80 °C stock at our laboratory) harvested with a parasitemia of 8% and 3%, respectively and adjusted to 1% parasitemia with fresh RBCs. In a 24-well plate, 100 μl of iRBCs was added to 900 μl of complete medium and the parasite growth was monitored daily by microscopic examination of a Giemsa-stained blood smear for 4 days."}, "P. berghei": {"system": "P. berghei", "design": "method as in PMID 11543688", "conditions": "no apparent toxicity; cited from earlier work"}, "equine RBCs / B. caballi": {"system": "equine RBCs / B. caballi", "experiment": "Growth of B. caballi with CRY-treated horse RBCs", "type": "cell-based, Babesia caballi", "conditions": "equine RBCs pre-incubated with 1 and 10 μM CRY for 3 and 6 h, 4 days", "method": "as §3"}, "[5]": {"experiment": "Hematology profiles, body weight and adverse effects of treated B. microti-infected mice", "type": "in vivo", "conditions": "CRY administered i.p.", "method": "The promising effect of CRY in vitro encouraged us to evaluate its in vivo effects against B. microti in mice. The assay was conducted in accordance with the previously described protocol. In two separate trials, 35 female 8-week-old BALB/c mice, housed under a pathogen-free environment with controlled humidity, temperature (22°C) and a 12 h light/ dark cycle were caged in seven groups, each group consisting of five mice. Six groups were i.p. injected with 0.5 ml of inoculum (1×10^7 B. microti iRBCs), while the seventh group was left uninfected and untreated to act as a negative control. When the average parasitemia in all infected mice reached approximately 1%, the 5-day drug treatment was initiated. […] Parasitemia and hematology profiles (RBCs, hemoglobin (HGB), and HCT) were monitored every 2 and 4 days by microscopic examination and hematology analyzer (Celltac α MEK-6450, Nihon Kohden Corporation, Tokyo, Japan), respectively. […]\nThe IC50 values of CRY, DA, CF, and AQ were determined using the nonlinear regression curve fit in GraphPad Prism (GraphPad Software Inc., San Diego, CA, USA). Combination index (CI) values for the drug combination were calculated using CompuSyn software, and the degree of synergism was determined as the weighted average of CI values using a formula [(1 x IC50) + (2 x IC75) + (3 x IC90) + (4 x IC95)]/10 [30]. […]"}}, "data": [{"compound": "O=C1C(O)=C([C@H]2CC[C@H](c3ccc(Cl)cc3)CC2)C(=O)c2ccccc21", "note": "[AQ, atovaquone]", "values": [{"measurement": "inhibition of cell line at 100 μM", "setting": "[1]", "value": "did not show any inhibition"}, {"measurement": "EC50", "setting": "[1]", "value": "> 100", "unit": "µM"}, {"measurement": "inhibition of cell line at 100 μM", "setting": "[2]", "value": "did not show any inhibition"}, {"measurement": "EC50", "setting": "[2]", "value": "> 100", "unit": "µM"}, {"measurement": "inhibition of cell line at 100 μM", "setting": "[3]", "value": "did not show any inhibition"}, {"measurement": "EC50", "setting": "[3]", "value": "> 100", "unit": "µM"}]}, {"compound": "Cn1c2c3ccccc3nc-2cc2ccccc21", "note": "[CRY, Cryptolepine hydrate]", "values": [{"measurement": "inhibition of cell line at 100 μM", "setting": "[1]", "value": "did not show any inhibition"}, {"measurement": "EC50", "setting": "[1]", "value": "> 100", "unit": "µM"}, {"measurement": "EC50", "setting": "[2]", "value": "86.7 ± 4.43", "unit": "µM"}, {"measurement": "EC50", "setting": "[3]", "value": "95.3 ± 2.7", "unit": "µM"}, {"measurement": "multiplication of B. divergens, CRY-treated RBCs versus normal RBCs", "setting": "[4]", "value": "did not significantly differ"}, {"measurement": "suppression of P. berghei parasitemia in mice", "setting": "P. berghei", "value": 80.5, "unit": "%"}, {"measurement": "multiplication of B. caballi, CRY-treated RBCs versus normal RBCs", "setting": "equine RBCs / B. caballi", "value": "did not significantly differ"}, {"measurement": "adverse effects in mice", "setting": "[5]", "value": "no apparent adverse effects"}]}]}
